In the NIST ThermoML archive (doi:10.1016/j.tca.2015.12.010):
Numbers after ± are expanded uncertainties.

Key:
[1] = Molar enthalpy of transition or fusion; details: Crystal; DSC
[2] = Crystal

| Molar enthalpy of transition or fusion [1] [kcal/mol] | Normal melting temperature ([2]; DTA) [°C] | Normal melting temperature ([2]; Infrared thermography) [°C] | Structure (SMILES) |
| --- | --- | --- | --- |
| 9.92 ± 0.263 | 118.90 ± 1.1 | 121.20 ± 10 | OC[C@@H](O)[C@@H](O)CO [meso-1,2,3,4-butanetetrol] |
| 9.13 ± 0.263 | 95.10 ± 1.1 | 99.00 ± 10 | OC[C@@H](O)[C@H](O)[C@@H](O)CO [xylitol] |

Further lines, the molecule ahead of its results:

| Structure (SMILES) | Molar enthalpy of transition or fusion [1] [kcal/mol] | Normal melting temperature ([2]; DTA) [°C] | Normal melting temperature ([2]; Infrared thermography) [°C] |
| --- | --- | --- | --- |
| OC[C@@H](O)[C@@H](O)[C@@H](O)CO [SRS-1,2,3,4,5-pentanepentol] | 8.44 ± 0.217 | 100.00 ± 1.1 | 101.60 ± 10 |
| OC[C@@H](O)[C@H](O)[C@H](O)[C@@H](O)CO [dulcitol] | 15.5 ± 0.382 | 187.30 ± 0.5 | 189.50 ± 10 |
| OC[C@@H](O)[C@@H](O)[C@H](O)[C@H](O)CO [D-mannitol] | 13.8 ± 0.359 | 167.10 ± 2.1 | 166.00 ± 10 |
